From PubChem BioAssay AID330 (DTP/NCI, 2004)
Where “and” joins values, the source holds several entries; their conditions need not be identical. Identical values can stand only once. Toxic doses and inconclusive results are not listed. The calls were made as follows: active = survival T/C of 150% or more; inactive = T/C below 125% in these data.

Tested on: P388 leukemia ip, CD2F1 mice, survival T/C
Assay: NCI In Vivo Anticancer Drug Screen. Data for tumor model P388 Leukemia (intraperitoneal) in CD2F1 (CDF1) mice
Conditions: endpoint: median survival time, higher = longer survival
Experimental: The antitumor activity of compounds was measured in mice bearing transplantable tumors. Survival or tumor size were measured and the results are expressed as the measurement made in the treated group (T) divided by the measurement made in the vehicle treated control group (C). The tumor model used in this assay is P388 Leukemia (intraperitoneal) in CD2F1 (CDF1) mice

[1] = dose: 50.0 mg/kg/injection, schedule: Q01DX005 (ip), vehicle: Klucel (hydroxypropylcellulose) (HPC)
[2] = dose: 100.0 mg/kg/injection, schedule: Q01DX005 (ip), vehicle: Klucel (hydroxypropylcellulose) (HPC)
[3] = dose: 200.0 mg/kg/injection, schedule: Q01DX005 (ip), vehicle: Klucel (hydroxypropylcellulose) (HPC)
[4] = dose: 60.0 mg/kg/injection, schedule: Q01DX005 (ip), vehicle: saline with Tween-80
[5] = dose: 120.0 mg/kg/injection, schedule: Q01DX005 (ip), vehicle: saline with Tween-80
[6] = dose: 240.0 mg/kg/injection, schedule: Q01DX005 (ip), vehicle: saline with Tween-80
[7] = dose: 25.0 mg/kg/injection, schedule: Q01DX001 (ip), vehicle: Klucel (hydroxypropylcellulose) (HPC)
[8] = dose: 50.0 mg/kg/injection, schedule: Q01DX001 (ip), vehicle: Klucel (hydroxypropylcellulose) (HPC)

Measured: T/C

O=C(Nc1cccc(NC(=O)c2nn[nH]n2)n1)c1nn[nH]n1
inactive: [1] 105 % of control | [2] 105 % of control | [3] 99 % of control

CCCCc1c(C#N)c(=O)n2c(N)c(C#N)cnc2c1SC
inactive: [4] 93 % of control | [5] 93 % of control | [6] 87 % of control

O=C1Nc2ccccc2/C1=N/N(c1ccccc1)c1ccccc1
inactive: dose: 50.0 mg/kg/injection, schedule: Q01DX005 (ip), vehicle: saline with Tween-80 95 % of control | dose: 100.0 mg/kg/injection, schedule: Q01DX005 (ip), vehicle: saline with Tween-80 101 % of control | dose: 200.0 mg/kg/injection, schedule: Q01DX005 (ip), vehicle: saline with Tween-80 99 % of control

NNC(=O)CS(=O)(=O)NCc1ccccc1
inactive: [1] 100 % of control | [2] 99 % of control | [3] 97 % of control

Oc1ccc(CCNCc2ccc3c(c2)OCO3)cc1
inactive: dose: 100.0 mg/kg/injection, schedule: Q04DX003 (ip), vehicle: saline with Tween-80 99 % of control | dose: 200.0 mg/kg/injection, schedule: Q04DX003 (ip), vehicle: saline with Tween-80 95 % of control

CC(C)N1CCN(c2ccncc2S(=O)(=O)N2CCN(C)CC2)CC1
inactive: dose: 50.0 mg/kg/injection, schedule: Q01DX009 (ip), vehicle: saline 106 % of control | dose: 100.0 mg/kg/injection, schedule: Q01DX009 (ip), vehicle: saline 90 % of control | dose: 200.0 mg/kg/injection, schedule: Q01DX009 (ip), vehicle: saline 99 % of control

COc1ccc(Cc2coc3cc(OC)cc(OC)c3c2=O)cc1
inactive: [4] 98 % of control | [5] 97 % of control | [6] 94 % of control

CCN(CC)CC.[CH-]1CCCCC1.[CH-]1CCCCC1.[CH-]1CCCCC1.[Cl-].[I-].[Sn+4]
inactive: dose: 1.5 mg/kg/injection, schedule: Q01DX005 (ip), vehicle: Klucel (hydroxypropylcellulose) (HPC) 96 % of control | dose: 3.0 mg/kg/injection, schedule: Q01DX005 (ip), vehicle: Klucel (hydroxypropylcellulose) (HPC) 98 % of control | dose: 6.0 mg/kg/injection, schedule: Q01DX005 (ip), vehicle: Klucel (hydroxypropylcellulose) (HPC) 100 % of control and 93 % of control

COc1cc(OC)c(OC)cc1/C=N/NC(=O)N/N=C/c1cc(OC)c(OC)cc1OC
inactive: dose: 12.5 mg/kg/injection, schedule: Q01DX009 (ip), vehicle: distilled water + Tween-80 96 % of control | dose: 25.0 mg/kg/injection, schedule: Q01DX009 (ip), vehicle: distilled water + Tween-80 96 % of control | dose: 50.0 mg/kg/injection, schedule: Q01DX009 (ip), vehicle: distilled water + Tween-80 108 % of control | dose: 100.0 mg/kg/injection, schedule: Q01DX009 (ip), vehicle: distilled water + Tween-80 99 % of control | dose: 200.0 mg/kg/injection, schedule: Q01DX009 (ip), vehicle: distilled water + Tween-80 94 % of control | dose: 400.0 mg/kg/injection, schedule: Q01DX009 (ip), vehicle: distilled water + Tween-80 86 % of control

O=[N+]([O-])c1cccnc1S(=O)(=O)c1ccccn1
inactive: dose: 6.25 mg/kg/injection, schedule: Q01DX009 (ip), vehicle: Klucel (hydroxypropylcellulose) (HPC) 100 % of control | dose: 12.5 mg/kg/injection, schedule: Q01DX009 (ip), vehicle: Klucel (hydroxypropylcellulose) (HPC) 100 % of control

CCNC(=O)OCc1c(-c2ccccc2)nc2n1CCS2
inactive: dose: 6.25 mg/kg/injection, schedule: Q01DX001 (ip), vehicle: Klucel (hydroxypropylcellulose) (HPC) 104 % of control | dose: 12.5 mg/kg/injection, schedule: Q01DX001 (ip), vehicle: Klucel (hydroxypropylcellulose) (HPC) 98 % of control and 115 % of control | [7] 114 % of control and 93 % of control | [8] 101 % of control and 106 % of control | dose: 75.0 mg/kg/injection, schedule: Q01DX001 (ip), vehicle: Klucel (hydroxypropylcellulose) (HPC) 108 % of control

O=S(=O)(C(c1ccc(Cl)cc1)c1ccc(Cl)cc1)C(Cl)(Cl)Cl
inactive: [7] 108 % of control | [8] 102 % of control | dose: 100.0 mg/kg/injection, schedule: Q01DX001 (ip), vehicle: Klucel (hydroxypropylcellulose) (HPC) 102 % of control

O=C(Nc1cccc(C(F)(F)F)c1)Nc1nccs1
inactive: dose: 25.0 mg/kg/injection, schedule: Q01DX009 (ip), vehicle: Klucel (hydroxypropylcellulose) (HPC) 100 % of control | dose: 50.0 mg/kg/injection, schedule: Q01DX009 (ip), vehicle: Klucel (hydroxypropylcellulose) (HPC) 98 % of control | dose: 100.0 mg/kg/injection, schedule: Q01DX009 (ip), vehicle: Klucel (hydroxypropylcellulose) (HPC) 97 % of control
